# Reference: patent US5795882A, “Method of treating prostatic diseases using delayed and/or sustained release vitamin D formulations” (Bone Care International, Inc., priority 1996, dated 1998)
# Key:
# [1] = test system: PC-3; experiment: Inhibition of prostate cell proliferation, PC-3; type: cell-based, human; details: PC-3, 10^-11 to 10^-7 M, 6-7 days
# Description: (§1) The cell lines, LNCaP and PC-3, which are derived from human prostate adenocarcinoma, are seeded in six-well tissue culture plates at a density of about 50,000 cells/plate. After the cells have attached and stabilized, about 2-3 days, the medium is replenished with medium containing vehicle or the active vitamin D analogue, 1α,24-(OH)2 D2, at concentrations from 10^-11 to 10^-7 M. Medium containing test analogue or vehicle is replaced every three days. After 6-7 days, the medium is removed, and the cells are rinsed, precipitated with cold 5% trichloroacetic acid, and washed with cold ethanol. The cells are solubilized with 0.2N sodium hydroxide, and the amount of DNA determined by standard procedures.
# (§2) The procedure of Example 19 is repeated using the active vitamin D analogue 1α,24-(OH)2 D4, and the cell number is determined.
# (§3) The procedure of Example 19 is repeated using the active vitamin D analogue 1α,25-(OH)2 D4, and the cell number is determined.
# [2] = test system: LNCaP; experiment: Stimulation of prostate cell differentiation (PSA), LNCaP; type: cell-based, human; details: 10^-11 to 10^-7 M, 6-7 days
# Description: Using the techniques of Skowronski et al., 132 Endocrinology (1993) 1952-1960 and 136 Endocrinology (1995) 20-26, both of which are incorporated herein by reference, cells of the cell line, LNCaP, which is derived from a human metastatic prostate adenocarcinoma and known to express PSA, are seeded in six-well tissue culture plates at a density of about 50,000 cells/plate. After the cells have attached and stabilized, about 2-3 days, the medium is replenished with medium containing vehicle or the active vitamin D analogue, 1α,24-(OH)2 D2, at concentrations from 10^-11 to 10^-7 M. After 6-7 days, the medium is removed and stored at -20° C. for prostate specific antigen (PSA) analysis.
# The cells are rinsed, precipitated, and the amount of DNA determined by standard procedures. The cells are resuspended, and the cell number determined. PSA is measured by standard known methods.
# The procedure of Example 22 is repeated except the active vitamin D analogue is 1α,24-(OH)2 D4.
# The procedure of Example 22 is repeated except the active vitamin D analogue is 1α,25-(OH)2 D4.
# [3] = test system: LNCaP; experiment: Inhibition of prostate cell proliferation, LNCaP; type: cell-based, human; details: 10^-11 to 10^-7 M, 6-7 days
# Description: as §1, §2, §3
# [4] = biological target: T1, prostate VDR (Homo sapiens, UniProt P11473); experiment: Prostate cell VDR binding; details: 0.01-100 nM versus 1 nM 3H-1α,25-(OH)2 D3, 16-20 hrs, 4° C.
# T1 sequence (P11473 1-427): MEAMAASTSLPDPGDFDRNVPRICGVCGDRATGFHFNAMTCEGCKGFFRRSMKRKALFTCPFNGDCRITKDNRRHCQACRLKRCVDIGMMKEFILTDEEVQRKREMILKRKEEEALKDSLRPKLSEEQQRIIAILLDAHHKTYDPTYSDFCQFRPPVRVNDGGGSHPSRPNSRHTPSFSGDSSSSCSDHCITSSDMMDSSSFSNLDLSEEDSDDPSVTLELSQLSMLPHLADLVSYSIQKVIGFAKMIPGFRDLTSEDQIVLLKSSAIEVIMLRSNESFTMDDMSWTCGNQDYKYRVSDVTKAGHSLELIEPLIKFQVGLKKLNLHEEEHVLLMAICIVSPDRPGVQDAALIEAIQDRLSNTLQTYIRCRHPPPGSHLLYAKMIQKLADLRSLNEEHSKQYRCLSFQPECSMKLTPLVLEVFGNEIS
# Description: Prostate-derived cell lines are cultured to near confluence, washed and harvested by scraping. Cells are washed by centrifugation, and the cell pellet resuspended in a buffered salt solution containing protease inhibitors. The cells are disrupted by sonication while cooling on ice. The supernatant obtained from centrifuging the disrupted cells at 207,000×g for 35 min at 4° C. is assayed for binding. 200 μL of soluble extract, (1-2 mg protein/ml supernatant) is incubated with a 1 nM ^3 H-1α,25-(OH)2 D3 and increasing concentrations of 1α,24-(OH)2 -D2 (0.01-100 nM) for 16-20 hrs at 4° C. Bound and free hormones are separated with hydroxylapatite using standard procedures. Specific binding is calculated by subtracting nonspecific binding obtained in the presence of a 250-fold excess of nonradioactive 1α,25-(OH)2 D3 from the total binding measured.
# The procedure of Example 16 is repeated using the active vitamin D analogue 1α,24-dihydroxyvitamin D4, and the specific binding is determined.
# The procedure of Example 16 is repeated using the active vitamin D analogue 1α,25-dihydroxyvitamin D4, and the specific binding is determined.
# [5] = biological target: T2, Vitamin D Receptor (Homo sapiens, UniProt P11473); experiment: VDR competitive binding assay (Examples 6-8); details: in words; Examples 7 and 8 versus the vitamin form
# T2 sequence (P11473 1-427): T1 sequence (P11473 1-427)
# [6] = in vivo; cited from earlier work
# [7] = test system: malignant cells; details: cited from earlier work
# [8] = Comparison of oral bioavailability in rachitic rats (Example 5); type: in vivo, rat; details: rat, in vivo, 0.0015 mg/kg, 12 h after single oral dose 0.255 μg (approximately 1.5 μg/kg) in fractionated coconut oil, n=6, ± SD, ** p < 0.01 relative to 1α,25(OH)2 D3, read-out: Serum 1α,25-(OH)2 D3
# Description: Three-week-old rats were maintained on a vitamin D-deficient diet containing normal levels of calcium and phosphorus for 3-6 weeks until marked hypocalcemia was observed. […] A control group received only the vehicle. For all treatment groups, blood was obtained at 12 hours postdosing, and analyzed for serum levels of the vitamin form.
# [9] = test system: leukemia cells; details: by inducing differentiation to nonmalignant macrophages; cited from earlier work
# [10] = test system: prostate cancer cell lines; details: cited from earlier work
# [11] = In vitro thermal conversion of 1α-hydroxyprevitamin D to 1α-hydroxyvitamin D; type: physicochemical; details: in ethanol, 37° C.
# Description: A series of experiments were conducted which address the in vitro conversion of previtamin to vitamin for three 1α-hydroxyprevitamin D's: 1α-hydroxyprevitamin D2, 1α,24-dihydroxyprevitamin D2 and 1α-hydroxyprevitamin D3. Each 1α-hydroxyprevitamin D was dissolved in ethanol, incubated at 37° C. in a water bath, and samples taken at two-hour intervals. An analytical HPLC separation was performed on each sample to quantify the thermal conversion of the previtamin to the vitamin form. The data collected were normalized to account for the presence of any vitamin form in the initial formulation (≤10%). The results are presented in FIG. 1 which is a plot of % previtamin versus time in hours. Linear regression lines were generated for each previtamin.
# [12] = test system: luteinizing hormone (LH); details: cited from earlier work
SMILES,number of cells versus control cultures [1],PSA (mass of PSA/cell) versus control cultures [2],number of cells versus control cultures [3],affinity for prostate VDR [4],other results
"C=C1/C(=C\C=C2/CCC[C@]3(C)[C@@H]([C@H](C)/C=C/C(C)(O)C(C)C)CC[C@@H]23)C[C@@H](O)C[C@@H]1O (stereo partly drawn) [1α,24-(OH)2 D2, 1α,24-dihydroxyvitamin D2]",significantly fewer cells than the control cultures,significantly more PSA than control cultures,significantly fewer cells than the control cultures,strong affinity for prostate VDR,–
"C=C1/C(=C\C=C2/CCC[C@]3(C)[C@@H]([C@H](C)CCC(C)(O)C(C)C)CC[C@@H]23)C[C@@H](O)C[C@@H]1O (stereo partly drawn) [1α,24-(OH)2 D4, 1α,24-dihydroxyvitamin D4]",significantly fewer cells than the control cultures,significantly more PSA than control cultures,significantly fewer cells than the control cultures,strong affinity for prostate VDR,–
"CC1=C(/C=C\C2=CCC[C@]3(C)[C@@H]([C@H](C)CCC(C)(O)C(C)C)CC[C@@H]23)C[C@@H](O)C[C@@H]1O (stereo partly drawn) [1α,24-(OH)2 preD4, 1α,24-dihydroxyprevitamin D4]",–,–,–,–,VDR binding affinity [5]: substantially less affinity for the receptor than does its vitamin form
"C=C1/C(=C\C=C2/CCC[C@]3(C)[C@@H]([C@H](C)CCCC(C)(C)O)CC[C@@H]23)C[C@@H](O)C[C@@H]1O [1α,25-(OH)2 D3, 1α,25-dihydroxyvitamin D3]",–,–,–,–,"risk of hypercalcemia limiting clinical use as anti-cancer agent [6]: precluded, or severely limited, by the risk of hypercalcemia; growth and differentiation of malignant cells [7]: regulate growth and promote the differentiation of many malignant cells; concentration at 12 h [8]: 0.327 ± 0.192 ng/mL; antileukemic activity [9]: potent antileukemic activity; antiproliferative and differentiating actions [10]: Antiproliferative and differentiating actions"
"C=C1/C(=C\C=C2/CCC[C@]3(C)[C@@H]([C@H](C)CC[C@H](C)C(C)(C)O)CC[C@@H]23)C[C@@H](O)C[C@@H]1O [1α,25-(OH)2 D4, 1α,25-dihydroxyvitamin D4]",significantly fewer cells than the control cultures,significantly more PSA than control cultures,significantly fewer cells than the control cultures,strong affinity for prostate VDR,–
"C=C1/C(=C\C=C2/CCC[C@]3(C)[C@@H]([C@H](C)CCCC(C)C)CC[C@@H]23)C[C@@H](O)C[C@@H]1O [1α-(OH)D3, 1α-hydroxyvitamin D3]",–,–,–,–,antileukemic activity [9]: potent antileukemic activity
"CC1=C(/C=C\C2=CCC[C@]3(C)[C@@H]([C@H](C)/C=C/[C@H](C)C(C)C)CC[C@@H]23)C[C@@H](O)C[C@@H]1O [1α-(OH)preD2, 1α-hydroxyprevitamin D2]",–,–,–,–,half-life [11]: 12.9 h
CC/C(=C(/CC)c1ccc(O)cc1)c1ccc(O)cc1 [diethylstilbestrol],–,–,–,–,cardiovascular profile ([12]; in vivo): poor cardiovascular profile; inhibition of the release of luteinizing hormone from the pituitary gland ([12]; in vivo): potent inhibitors of the release from the pituitary gland of luteinizing hormone; dose achieving maximum suppression of plasma testosterone ([12]; men): 3 mg/day
